Data set [1] in a line: Stability of MUG-HSA in medium without cells. The data set is classed as in vitro ADME. The text has this:
(§1) The amounts given in the Figure relate to 1 well and the methyl umbelliferon glucuronide within the HSA conjugate. After addition of 1 M NaOH methyl umbelliferon was fluorimetrically determined in the cell subernatant at 448 nm with an excitation at 360 nm. […] Thus, despite its coupling to albumin MUG-HSA is a substrate for human synovial fribroblasts. MUG-(HSA) is stable in medium without cells.

Data set [2] concerns synovial fibroblasts (sFb). Kind of data set: Release of a fluorescent aglycon (methyl umbelliferon) from MUG-HSA in human synovial fibroblasts. The class given is cell-based.
Source text: as §1

A further data set deals with WEHI-7 cells. Kind of data set: Induction of cell death in glucocorticoid-sensitive WEHI-7 cells (propidium iodide staining, fluorimetric analysis). The class given is cell-based, mouse. On the procedure:
Cell death in glucocorticoid-sensitive WEHI-7 cells was induced by incubation with low molecular hydrocortisone (HC) and albumin-coupled hydrocortisone (hydrocortisone-21-β-D-glucuronide-HSA; HCG-HSA) over a period of 72 h. Different albumin concentrations were equalized by addition of free HSA. Dead cells were determined by fluorimetric analysis (staining with propidium iodide (PI)). […] Since the albumin conjugate was taken up by the cells via endocytosis (whereas the free HC passes the cell membrane via diffusion) HCG-HSA has to be applied in a two-fold concentration for achieving the same effect.

Take “methyl umbelliferon glucuronide-HSA [MUG-HSA]”: the stability in medium entry in data set [1] was “stable”. In addition, the “cleavage of fluorescent methyl umbelliferon” value in data set [2] (in conditioned medium of synovial fibroblasts) was “could be demonstrated”. Besides, the Cleavage result in data set [2] (incubation for 24 h in synovial fibroblasts, methyl umbelliferon fluorimetrically determined in supernatant at 448 nm, excitation 360 nm, Figure 4) is “could be demonstrated”.

For the substance “hydrocortisone-21-β-D-glucuronide-HSA [HCG-HSA]”, the “concentration for achieving the same effect” value in the data set on WEHI-7 cells (HCG-HSA relative to free HC, WEHI-7 cells, 72 h) was “two-fold”. In addition, the “activity as a glucocorticoid” value in the data set with WEHI-7 cells (despite coupling to albumin, WEHI-7 cells, 72 h) was “keeps its activity”. Besides, in the data set on WEHI-7 cells (incubation over 72 h, albumin concentrations equalized with free HSA, dead cells by PI staining, Figure 3), the Cell death entry was “dose dependent cell death”.

(Values after patent publication EP1625854B1, “Albumin conjugates containing a glucuronic linker” (Deutsches Krebsforschungszentrum Stiftung des öffentlichen …, priority 2004, dated 2006).)
